Data published in patent US20250282825A1, “NOVEL CYCLIC COMPOUNDS, METHOD FOR THEIR PREPARATION AND THE USE OF SAID CYCLIC COMPOUNDS IN COSMETIC PREPARATIONS” (priority 2020, published 2025).

Columns and labels:
S. aureus N315 LugIEFGH = format: cell-based, Staphylococcus aureus; conditions: for recognized and transported by the lugdunin transporters LugIEFGH: derived from MIC ratio, FIG. 5
[1] = test system: human primary keratinocytes; assay: WST-1 assay (cell viability/cytotoxicity); format: cell-based; conditions: 3.1 μg/ml, 6 h, 37° C., keratinocytes from three donors, versus DMSO solvent control
Method: To determine possible cytotoxicity, a WST-1 assay was first performed using human primary keratinocytes from three different donors according to the manufacturer's instructions. The colorimetric assay measures cell viability of cells and can therefore be used to determine cytotoxic compounds incubated with the cells. The greater the number of viable cells, the higher the activity of mitochondrial dehydrogenases and the greater the amount of dye formed in the assay. […] Cell culture supernatants were then removed, and WST1 reagent was added to the keratinocytes. […] DMSO served as a negative control (solvent control).

[2] = test system: human primary keratinocytes; assay: LDH assay (lactate dehydrogenase release); format: cell-based; conditions: 3.1 μg/ml, 24 h, 37° C., keratinocytes from three donors, relative to Triton-X (100%)
Method: To verify the results, an LDH assay was performed using human primary keratinocytes from three different donors according to the manufacturer's instructions. This assay is based on the detection of the enzyme lactate dehydrogenase, which is released into the cell culture medium when the cell membrane is damaged, where it can then be detected. […] Subsequently, 50 μl of each cell culture supernatant was transferred to a 96well plate, mixed with 50 μl of LDH reagent and measured (according to manufacturer's instructions). […] DMSO served as a negative control (solvent control).

Compound | formation of resistance (S. aureus N315 LugIEFGH; conclusion from MIC ratio) | recognized and transported by the lugdunin transporters LugIEFGH (S. aureus N315 LugIEFGH) | MIC ratio MIC(S. aureus LugIEFGH)/MIC(S. aureus Wt) (S. aureus N315 LugIEFGH; ratio close to 1 = no resistance increase by the transporters, lugdunin value is the median) | cytotoxic effect in WST-1 assay [1] | cytotoxic effect in LDH assay [2] | virus inhibition (SARS-CoV-2; A549 cells, SARS-CoV-2 MOI=1.0, concentration 3.7 μM) | antiviral activity relative to lugdunin (SARS-CoV-2; higher antiviral activity than lugdunin, from EC50 values) | EC50 (SARS-CoV-2; read-out: EC50 (SARS-CoV-2 antiviral activity), A549 cells, SARS-CoV-2 MOI=1.0) [nM]
CC(C)C[C@H]1NC(=O)[C@H](Cc2c[nH]c3ccccc23)NC(=O)[C@@H](C(C)C)NC(=O)[C@H]2NC(SC2(C)C)[C@H](C(C)C)NC(=O)[C@@H](C(C)C)NC(=O)[C@H](C(C)C)NC1=O [I.1] | no formation of resistance is to be expected | neither I.1 nor CCCP, is recognized and transported | 1.064 |  |  |  |  | 
CC(C)C[C@H]1NC(=O)[C@H](Cc2c[nH]c3ccccc23)NC(=O)[C@@H](C(C)C)NC(=O)[C@H]2NC(SC2(C)C)[C@H](C(C)C)NC(=O)[C@@H](Cc2c[nH]c3ccccc23)NC(=O)[C@H](C(C)C)NC1=O [I.3] |  |  |  | no such cytotoxic effect | no significant cytotoxic effect | about 80% | approximately 9 fold | 2220
carbonyl cyanide-3-chrlophenylhydrazone [CCCP, reference compound] |  | neither I.1 nor CCCP, is recognized and transported |  |  |  |  |  | 
